Source: patent publication US20240261296A1, “THERAPEUTIC MODALITIES FOR INHIBITING PANCREATIC BETA CELL IMPAIRMENT AND TREATING DIABETES” (Hadasit Medical Research Serices & Development Ltd., priority 2021, published 2024)

Test system: human islets β-cells
Assay: glucose-stimulated insulin secretion and insulin content in palmitate-treated human islets
Assay type: cell-based
Conditions: palmitic acid 0.3 mM, 48 hr, donors 1 and 2
Protocol: Determination of glucose-stimulated insulin secretion (GSIS) and content: To determine acute insulin release in response to glucose stimulation, islets were washed with Krebs-Ringer bicarbonate buffer pH 7.4, containing 10 mM HEPES and 0.5% bovine serum albumin (KRBH), and pre-incubated for 2 hrs in the same buffer containing 3.3 mM glucose. The buffer was then discarded and replaced with fresh KRBH containing 3.3 mM glucose, and the islets incubated for 1 hour for basal insulin secretion, followed by additional 1 hour incubation in KRBH containing 16.7 mM glucose. The supernatants were collected, centrifuged at 900 rpm and insulin was determined by Rat or Human insulin radioimmunoassay (RIA) kits (Linco Research, St. Charles, MO) according to the Manufacturer's instructions. […] The acidic ethanol eluates were collected and the amount of insulin determined by ELISA.
ELISA Assay: Insulin was extracted from the intracellular storage granules in human islets cells using a lysis buffer (Ethanol-HCl). The extract was analysed by a specific ELISA (Mercodia) which is a solid phase two-site enzyme immunoassay based on the sandwich technique, in which two monoclonal antibodies are directed against separate antigenic determinants on the insulin molecule. […]

CC[C@@H]1CC[C@H](C)N1C(=O)c1cccc(NS(=O)(=O)c2ccc(C)c(F)c2)c1 [Compound C13, N-(3-((2R,5S)-2-ethyl-5-methylpyrrolidine-1-carbonyl)phenyl)-3-fluoro-4-methylbenzenesulfonamide]
restoring glucose-stimulated insulin secretion (16.7 mM glucose): more potent than L-798106
restoring insulin content: more potent than L-798106
